One compound from PMC10955247, “In vivo screening for toxicity-modulating drug interactions identifies antagonism that protects against ototoxicity in zebrafish” (Frontiers in Pharmacology, 2024) can be followed below.

Where a name gives a salt, the structure may show the parent alone.

This data set has as its system zebrafish lateral line hair cells. Briefly: Lateral line hair cell intracellular calcium imaging and cell death. Type of data set: in vivo. An excerpt: For calcium testing, zebrafish expressing HC-specific GCaMP targeted to the inner mitochondrial matrix were crossed with fish expressing a HC specific calcium indicator to create double-transgenic embryos (Tg (myo6b:mitoGCaMP3;myo6b:cytoRGECO), Table 1) with both green fluorescent mitochondrial calcium and red fluorescent cytosolic calcium indicators, then raised as described previously ([McQuate et al., 2023]). Zebrafish embryos were collected from 2-h spawning periods and raised in Petri dishes in embryo medium (EM: 14.97 mM NaCl, 500 μM KCl, 42 µM Na2HPO4, 150 µM KH2PO4, 1 mM CaCl2 dehydrate, 1 mM MgSO4, 0.714 mM NaHCO3, pH 7.2) at a density of 60 larvae per […] dish, in a dark 28.5°C incubator until 5 dpf. Larvae were screened for indicator expression at 4 dpf.
Calcium imaging was performed using an inverted Marianas spinning disk confocal system (Intelligent Imaging Innovations, 3i) with an Evolve 10 MHz EMCCD camera (Photometrics) and a Zeiss C-Apochromat 63x/1.2 numerical aperture water objective. Larvae were 5-6 dpf at the time of imaging. Larvae were first anesthetized in embryo media containing 800 µM tricaine, then stabilized on their sides under a harp, so that posterior neuromasts were exposed to the surrounding media. Imaging was performed at ambient temperature, approximately 25°C. GCaMP fluorescence was acquired with a 488 nm laser and 535/30 emission filter, with an exposure time of 100 ms, and RGECO fluorescence was acquired with a 561 nm laser and 617/73 emission filter and exposure time of 200 ms. Images were taken every 2 minutes as z-stacks through neuromasts in 2 µm steps. Neomycin and azithromycin were dissolved as a 4X stock in EM (described in Section 2.1: Zebrafish Husbandry), then added to the bath to achieve final working concentration after a 10-min baseline. Imaging of neuromasts continued for 50 min. Images were analyzed in ImageJ. Mean fluorescence intensity was measured for ROIs of individual randomly selected HCs (2–3 HCs per NM, see example ROI in Figure 4). For each HC, values were normalized to the average of baseline using Microsoft Excel.

For the compound `NC[C@@H]1O[C@H](O[C@H]2[C@@H](O)[C@H](O[C@@H]3[C@@H](O)[C@H](N)C[C@H](N)[C@H]3O[C@H]3O[C@H](CN)[C@@H](O)[C@H](O)[C@H]3N)O[C@@H]2CO)[C@H](N)[C@@H](O)[C@@H]1O` [Neomycin, Neomycin sulfate hydrate], the “HC mitochondrial and cytoplasmic calcium response” value (NEO 50 µM, AZM 190 µM, mitoGCaMP3, cytoRGECO larvae) is given as “induced an increase in mitochondrial”. The “HCs that went on to die, of those analyzed” value (NEO alone 50 µM) turned out to be 66%. Also, the “cells that went on to die” value (drug alone, calcium imaging) is on record as 14/21.
